#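 In this assay, cells in 96-well plates receive the compound at five concentrations for 48 hours. Endpoints are linearly interpolated between the surrounding concentrations. GI50 marks 50% less growth.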 Calls of active or inactive are those of the source. Cut-off read from the data, not from the text of the source: active = GI50 up to about 1.1 µM and inactive = higher.
# Columns and labels:
# Test in all cases: growth of human tumour cells (NCI), 48 h
# MOLT-4 = test system: MOLT-4
# EKVX = test system: EKVX
# MDA-N = test system: MDA-N
# OVCAR-8 = test system: OVCAR-8
# ACHN = test system: ACHN
# SK-MEL-2 = test system: SK-MEL-2
# SK-MEL-5 = test system: SK-MEL-5
# UACC-62 = test system: UACC-62
# OVCAR-5 = test system: OVCAR-5
# K562 = test system: K562
# COLO 205 = test system: COLO 205
# RXF 393 = test system: RXF 393
# SF-268 = test system: SF-268
# BT-549 = test system: BT-549
# HOP-62 = test system: HOP-62
# DU-145 = test system: DU-145
# HCC 2998 = test system: HCC 2998
# HCT-116 = test system: HCT-116
# MCF7 = test system: MCF7
# HCT-15 = test system: HCT-15
# 786-0 = test system: 786-0
# HL-60 = test system: HL-60
# NCI/ADR-RES = test system: NCI/ADR-RES
# SN12C = test system: SN12C
# SR = test system: SR
# CAKI-1 = test system: CAKI-1
# NCI-H522 = test system: NCI-H522
# M14 = test system: M14
# SK-MEL-28 = test system: SK-MEL-28
# SF-295 = test system: SF-295
# Malme-3M = test system: Malme-3M
# UACC-257 = test system: UACC-257
# KM12 = test system: KM12
# HOP-92 = test system: HOP-92
# HT-29 = test system: HT-29
# NCI-H226 = test system: NCI-H226
# MDA-MB-435 = test system: MDA-MB-435
# NCI-H23 = test system: NCI-H23
# IGROV-1 = test system: IGROV-1
# MDA-MB-231 = test system: MDA-MB-231
# NCI-H460 = test system: NCI-H460
# Hs-578T = test system: Hs-578T
# SK-OV-3 = test system: SK-OV-3
# T47D = test system: T47D
# RPMI-8226 = test system: RPMI-8226
# A549 = test system: A549
# SNB-19 = test system: SNB-19
# SW-620 = test system: SW-620
# TK-10 = test system: TK-10
# PC-3 = test system: PC-3
# U-251 = test system: U-251
# OVCAR-3 = test system: OVCAR-3
# UO-31 = test system: UO-31
# SF-539 = test system: SF-539
# OVCAR-4 = test system: OVCAR-4
# CCRF-CEM = test system: CCRF-CEM
# SNB-75 = test system: SNB-75
compound,measurement,setting,value
O=C(Oc1c(Br)cc(Br)cc1C(=O)Oc1ccccc1)C(=O)Oc1c(Br)cc(Br)cc1C(=O)Oc1ccccc1,GI50,MOLT-4,14.9 µM (inactive)
same,GI50,EKVX,26.2 µM (inactive)
same,GI50,MDA-N,27.5 µM (inactive)
same,GI50,OVCAR-8,30.8 µM (inactive)
same,GI50,ACHN,27.7 µM (inactive)
same,GI50,SK-MEL-2,26.7 µM (inactive)
same,GI50,SK-MEL-5,17.3 µM (inactive)
same,GI50,UACC-62,24.8 µM (inactive)
same,GI50,OVCAR-5,24.4 µM (inactive)
same,GI50,K562,12.7 µM (inactive)
same,GI50,COLO 205,21.6 µM (inactive)
same,GI50,RXF 393,12.9 µM (inactive)
same,GI50,SF-268,29 µM (inactive)
same,GI50,BT-549,18.5 µM (inactive)
same,GI50,HOP-62,16.2 µM (inactive)
same,GI50,DU-145,37.5 µM (inactive)
same,GI50,HCC 2998,31 µM (inactive)
same,GI50,HCT-116,14.4 µM (inactive)
same,GI50,MCF7,26.7 µM (inactive)
same,GI50,HCT-15,20.7 µM
same,GI50,786-0,19.6 µM (inactive)
same,GI50,HL-60,< 0.01 µM (active)
same,GI50,NCI/ADR-RES,38.9 µM (inactive)
same,GI50,SN12C,30.3 µM (inactive)
same,GI50,SR,18.5 µM (inactive)
same,GI50,CAKI-1,19.7 µM (inactive)
same,GI50,NCI-H522,14.4 µM (inactive)
same,GI50,M14,34.1 µM (inactive)
same,GI50,SK-MEL-28,28.7 µM (inactive)
same,GI50,SF-295,31 µM (inactive)
same,GI50,Malme-3M,20.9 µM (inactive)
same,GI50,UACC-257,39 µM (inactive)
same,GI50,KM12,24 µM (inactive)
same,GI50,HOP-92,12 µM (inactive)
same,GI50,HT-29,32.7 µM (inactive)
same,GI50,NCI-H226,16 µM (inactive)
same,GI50,MDA-MB-435,10.1 µM (inactive)
same,GI50,NCI-H23,0.621 µM (active)
same,GI50,IGROV-1,26.7 µM (inactive)
same,GI50,MDA-MB-231,12.1 µM (inactive)
same,GI50,NCI-H460,> 100 µM (inactive)
same,GI50,Hs-578T,34.8 µM (inactive)
same,GI50,SK-OV-3,33.8 µM (inactive)
same,GI50,T47D,27.1 µM (inactive)
same,GI50,RPMI-8226,15.5 µM (inactive)
same,GI50,A549,14.5 µM (inactive)
same,GI50,SNB-19,20 µM (inactive)
same,GI50,SW-620,19.8 µM (inactive)
same,GI50,TK-10,49.2 µM (inactive)
same,GI50,PC-3,20.2 µM (inactive)
same,GI50,U-251,13.1 µM (inactive)
same,GI50,OVCAR-3,24.3 µM (inactive)
same,GI50,UO-31,16 µM (inactive)
same,GI50,SF-539,19.7 µM (inactive)
O=C1CC(=O)NC(NNS(=O)(=O)c2ccccc2)=N1,GI50,MOLT-4,> 100 µM (inactive)
same,GI50,MDA-N,> 100 µM (inactive)
same,GI50,OVCAR-8,> 100 µM (inactive)
same,GI50,ACHN,> 100 µM (inactive)
same,GI50,SK-MEL-2,> 100 µM (inactive)
same,GI50,SK-MEL-5,> 100 µM (inactive)
same,GI50,UACC-62,> 100 µM (inactive)
same,GI50,OVCAR-5,> 100 µM (inactive)
same,GI50,K562,> 100 µM (inactive)
same,GI50,COLO 205,> 100 µM (inactive)
same,GI50,RXF 393,> 100 µM (inactive)
same,GI50,SF-268,> 100 µM (inactive)
same,GI50,BT-549,> 100 µM (inactive)
same,GI50,HOP-62,> 100 µM (inactive)
same,GI50,DU-145,> 100 µM (inactive)
same,GI50,HCC 2998,> 100 µM (inactive)
same,GI50,HCT-116,> 100 µM (inactive)
same,GI50,MCF7,> 100 µM (inactive)
same,GI50,HCT-15,> 100 µM
same,GI50,786-0,> 100 µM (inactive)
same,GI50,NCI/ADR-RES,> 100 µM (inactive)
same,GI50,SN12C,> 100 µM (inactive)
same,GI50,SR,> 100 µM (inactive)
same,GI50,OVCAR-4,> 100 µM (inactive)
same,GI50,CAKI-1,> 100 µM (inactive)
same,GI50,NCI-H522,> 100 µM (inactive)
same,GI50,M14,> 100 µM (inactive)
same,GI50,SK-MEL-28,> 100 µM (inactive)
same,GI50,SF-295,> 100 µM (inactive)
same,GI50,Malme-3M,> 100 µM (inactive)
same,GI50,UACC-257,> 100 µM (inactive)
same,GI50,KM12,> 100 µM (inactive)
same,GI50,HOP-92,> 100 µM (inactive)
same,GI50,HT-29,> 100 µM (inactive)
same,GI50,NCI-H226,> 100 µM (inactive)
same,GI50,MDA-MB-435,> 100 µM (inactive)
same,GI50,NCI-H23,> 100 µM (inactive)
same,GI50,CCRF-CEM,> 100 µM (inactive)
same,GI50,IGROV-1,> 100 µM (inactive)
same,GI50,MDA-MB-231,> 100 µM (inactive)
same,GI50,NCI-H460,> 100 µM (inactive)
same,GI50,Hs-578T,> 100 µM (inactive)
same,GI50,SK-OV-3,> 100 µM (inactive)
same,GI50,T47D,> 100 µM (inactive)
same,GI50,RPMI-8226,> 100 µM (inactive)
same,GI50,A549,> 100 µM (inactive)
same,GI50,SNB-19,> 100 µM (inactive)
same,GI50,SW-620,> 100 µM (inactive)
same,GI50,TK-10,> 100 µM (inactive)
same,GI50,SNB-75,> 100 µM (inactive)
same,GI50,PC-3,> 100 µM (inactive)
same,GI50,U-251,> 100 µM (inactive)
same,GI50,OVCAR-3,> 100 µM (inactive)
same,GI50,UO-31,> 100 µM (inactive)
same,GI50,SF-539,> 100 µM (inactive)
O=C(O)CN(CC(=O)O)Cc1ccn(-c2cccc(-n3ccc(CN(CC(=O)O)CC(=O)O)n3)n2)n1,GI50,MOLT-4,> 100 µM (inactive)
same,GI50,EKVX,> 100 µM (inactive)
same,GI50,MDA-N,> 100 µM (inactive)
same,GI50,OVCAR-8,> 100 µM (inactive)
same,GI50,ACHN,> 100 µM (inactive)
same,GI50,SK-MEL-2,> 100 µM (inactive)
same,GI50,SK-MEL-5,> 100 µM (inactive)
same,GI50,UACC-62,> 100 µM (inactive)
same,GI50,OVCAR-5,> 100 µM (inactive)
same,GI50,COLO 205,> 100 µM (inactive)
same,GI50,RXF 393,> 100 µM (inactive)
same,GI50,SF-268,> 100 µM (inactive)
same,GI50,BT-549,> 100 µM (inactive)
same,GI50,HOP-62,> 100 µM (inactive)
same,GI50,DU-145,> 100 µM (inactive)
same,GI50,HCC 2998,> 100 µM (inactive)
same,GI50,HCT-116,> 100 µM (inactive)
same,GI50,MCF7,> 100 µM (inactive)
same,GI50,HCT-15,> 100 µM
same,GI50,786-0,> 100 µM (inactive)
same,GI50,HL-60,< 0.01 µM (active)
same,GI50,NCI/ADR-RES,> 100 µM (inactive)
same,GI50,SN12C,> 100 µM (inactive)
same,GI50,SR,> 100 µM (inactive)
same,GI50,CAKI-1,> 100 µM (inactive)
same,GI50,NCI-H522,> 100 µM (inactive)
same,GI50,M14,> 100 µM (inactive)
same,GI50,SK-MEL-28,> 100 µM (inactive)
same,GI50,SF-295,> 100 µM (inactive)
same,GI50,Malme-3M,> 100 µM (inactive)
same,GI50,UACC-257,> 100 µM (inactive)
same,GI50,KM12,> 100 µM (inactive)
same,GI50,HOP-92,> 100 µM (inactive)
same,GI50,HT-29,> 100 µM (inactive)
same,GI50,NCI-H226,> 100 µM (inactive)
same,GI50,MDA-MB-435,3.53 µM (inactive)
same,GI50,NCI-H23,< 0.01 µM (active)
same,GI50,IGROV-1,> 100 µM (inactive)
same,GI50,MDA-MB-231,> 100 µM (inactive)
same,GI50,NCI-H460,> 100 µM (inactive)
same,GI50,Hs-578T,> 100 µM (inactive)
same,GI50,SK-OV-3,> 100 µM (inactive)
same,GI50,T47D,> 100 µM (inactive)
same,GI50,RPMI-8226,> 100 µM (inactive)
same,GI50,A549,17.4 µM (inactive)
same,GI50,SNB-19,> 100 µM (inactive)
same,GI50,SW-620,> 100 µM (inactive)
same,GI50,TK-10,> 100 µM (inactive)
same,GI50,SNB-75,> 100 µM (inactive)
same,GI50,PC-3,> 100 µM (inactive)
same,GI50,U-251,21.1 µM (inactive)
same,GI50,OVCAR-3,> 100 µM (inactive)
same,GI50,UO-31,93.8 µM (inactive)
same,GI50,SF-539,> 100 µM (inactive)
